These results are taken from PMC6616128, “Liquiritin, as a Natural Inhibitor of AKR1C1, Could Interfere With the Progesterone Metabolism” (Frontiers in Physiology, 2019).

As usually defined, the IC50 is the midpoint of a concentration-inhibition curve. As usually defined, the inhibition is how much of the control response was suppressed. As usually defined, the Km is the substrate concentration at which the rate is half of its maximum. One may read the Vmax as the rate approached at saturating substrate.

Test [1] deals with T1, recombinant AKR1C3 (Homo sapiens, UniProt P42330).
T1 sequence (P42330 1-323): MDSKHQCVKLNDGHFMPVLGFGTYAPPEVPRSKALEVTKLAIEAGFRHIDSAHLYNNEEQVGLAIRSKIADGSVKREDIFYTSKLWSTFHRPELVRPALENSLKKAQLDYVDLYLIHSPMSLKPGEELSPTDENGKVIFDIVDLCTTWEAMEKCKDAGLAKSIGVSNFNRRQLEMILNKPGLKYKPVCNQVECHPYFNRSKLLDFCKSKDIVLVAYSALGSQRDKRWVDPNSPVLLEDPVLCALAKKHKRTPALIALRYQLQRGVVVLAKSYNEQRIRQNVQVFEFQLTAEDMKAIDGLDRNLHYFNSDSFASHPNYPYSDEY
Briefly: biochemical.
Protocol: (§1) Protein concentrations were determined using the Bradford protein assay kit.
(§2) To screen for the indicated inhibitor, the assay mixture was added with additional DMSO or 2 μM compounds. […] The inhibition patterns were determined by fitting initial velocity and inhibitor concentration into inhibition models using Graphpad Prism 6.0. All inhibition data were obtained from single experiments, with samples conducted in duplicate.
(§3) Each experiment was repeated three times and the differences among means were significant determined by Student t-text (^∗p < 0.05; ^∗∗p < 0.01; ^∗∗∗p < 0.001).

Test [2] has as its target T2, recombinant AKR1C2 (Homo sapiens, UniProt P52895).
T2 construct: made in house; host or cells: Escherichia coli JM109
T2 sequence (P52895 1-323): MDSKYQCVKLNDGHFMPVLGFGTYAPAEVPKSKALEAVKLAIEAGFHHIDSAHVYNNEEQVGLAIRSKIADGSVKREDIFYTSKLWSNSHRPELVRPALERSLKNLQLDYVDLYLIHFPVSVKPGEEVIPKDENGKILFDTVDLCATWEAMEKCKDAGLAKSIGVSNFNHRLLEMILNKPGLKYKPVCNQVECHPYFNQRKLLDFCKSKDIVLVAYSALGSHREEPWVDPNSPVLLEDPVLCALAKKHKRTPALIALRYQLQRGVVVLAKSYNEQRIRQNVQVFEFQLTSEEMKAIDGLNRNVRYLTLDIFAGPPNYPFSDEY
Briefly: Enzyme activity (NADPH) assay with s-tetralol, recombinant GST-AKR1C2. Format: biochemical.
Protocol: as §1, §2, §3

For test [3], the target named is T3, AKR1C1 (Homo sapiens, UniProt Q04828).
T3 sequence (Q04828 1-323): T2 sequence (P52895 1-323) with V38T, H47R, V54L, S87C, M151V, H170R, L172Q
The experiment in a line: Progesterone metabolism in HEC-1-B cells transfected with AKR1C1 plasmid. The conditions noted are these: 50 μM compound, 5 μM progesterone, 6 h. Set-up: expressed in transfected cells; host or cells: HEC-1-B cells. Format: cell-based.
Protocol: HEC-1-B cell line was purchased from the Cell Bank of the Chinese Academy of Sciences (Shanghai, China). HEC-1-B cell was cultured in DMEM (Gibco, Grand Island, New York, United States) supplemented with 10% fetal bovine serum at 37°C in a 5% CO2 incubator. In all experiments, the cells were used at passages 4 to 10. The cells were transfected with AKR1C1 plasmid using jet PRIME reagent (Polyplus) according to manufacturer’s instructions. […] The culture media were collected immediately and 6 h later. […] A LC-20A High Performance liquid chromatography (Shimadzu, Japan) with UV detector was used for analyzing progesterone cultured from the cells. […] The mobile phase used was a mixture of mobile phase A and mobile phase B in an isocratic program as 3:7 running on an Agilent HC C18 column (150 mm × 4.6 mm, 5 μm particle size) at a constant temperature of 35°C. The flow rate was 1.0 mL/min and the detection wavelength was 245 nm. The whole analytical period was 10 min for each sample. The standard (progesterone) was dissolved in methanol. […]
Therefore, we choose to transfect cells with AKR1C1 gene for cellular study. […] Each experiment was repeated three times and the differences among means were significant determined by Student t-text (^∗p < 0.05; ^∗∗p < 0.01; ^∗∗∗p < 0.001).

Test [4] has as its target T3, AKR1C1. Briefly: Enzyme activity (NADPH) assay with s-tetralol, recombinant GST-AKR1C1.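 Further: GST-fused AKR1C1 expressed in E. coli and purified by glutathione affinity, control wells received DMSO instead of compound, duplicate samples from a single experiment.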 Details: made in house; host or cells: Escherichia coli JM109. Format: biochemical.
Protocol: GST-tagged recombinant AKR1C isoforms expressed JM109 was grown in Luria-Bertani broth (100 μg⋅ml-1 ampicillin, pH = 7.0) at 37°C with orbital shaking at 220 rpm. When cells achieved an OD600 nm between 0.4 and 0.6, 0.3 mM final concentration of isopropyl β-D-1-thiogalactopyranoside (IPTG) was added to the cultures and incubated for an additional 12 h at 25°C. Cells were harvested by centrifugation at 8000 g for 10 min, and the cell pellets were stored at -80°C for storage. The pellets were resuspended in 1 × PBS, pH = 7.4 and lysed by ultrasonication at ice-cold temperature using an UH-03 union instrument. The purification of glutathione-S-transferase (GST)-fusion AKR1C1, AKR1C2, and AKR1C3 were then carried out using ÄKTA systems from GE Healthcare as described in Handbook. The recombinant proteins were eluted in 50 mM Tris–HCl (pH = 8.0) with 20 mM reduced glutathione, fresh preparedly. Protein concentrations were determined using the Bradford protein assay kit. All proteins were aliquoted and stored at -80°C containing 20% glycerol.
as §2
Firstly, we overexpressed recombinant human AKR1C in E. coli in the form of a GST-fusion protein, and then purified it by affinity chromatography on glutathione-Sepharose.
To screen for the inhibitors of AKR1C1, we developed a readily accessible indirect NADPH generating-based assay that can be used for high-throughput inhibitors screening. […] Wells were included containing enzyme and no inhibitor or 2 μM inhibitor.
Test [5] concerns the target T1, recombinant AKR1C3. The conditions noted are these: GST-AKR1C3; S-tetralol/NADP+.
Protocol: as §1, §2, §3

Residue numbers refer to the chain shown, from its start. Read-outs that look alike come from different tables or passages of the source.

On to `O=C1C[C@@H](c2ccc(O[C@@H]3O[C@H](CO)[C@@H](O)[C@H](O)[C@H]3O)cc2)Oc2cc(O)ccc21` [Liquiritin], for which the IC50 in test [1] came to 3.72 ± 0.09 µM; in test [2] (s-tetralol 103.30 μM as substrate), 0.61 ± 0.05 µM. In test [3], this compound returned an inhibition at 50 µM of 85%. Moreover, the remaining activity at 2 µM in test [4] (2 μM compound, Figure 1A, read-out: % Enzyme Activity) stood at 31%; in test [4] (2 μM compound, Supplementary Table 1, CON = 1, read-out: ratio (activity relative to CON)), 31%. Moreover, the slope in test [4] (2 μM compound, Supplementary Table 1, CON 0.0122) worked out at 0.003777. Besides, in test [4] (2 μM compound, Supplementary Table 1, CON 192.295568), the enzyme activity was determined as 59.5351 nmol/min/mg. The inhibition at 2 µM came to 69% in test [4] (2 μM compound, Supplementary Table 1, read-out: % inhibition) and 34% in test [4] (2 μM compound, text on Figure 1A, read-out: inhibitory effect over AKR1C1 enzyme activity (% inhibition)). Further, the inhibition pattern result in test [4] (s-tetralol concentration variation) is reported as “competitive inhibitor”. For the same compound, in test [4] (selectivity AKR1C1 vs AKR1C2), the “IC50 ratio 1C1/1C2” value was 1.03. The “IC50 ratio 1C1/1C3” value in test [4] (selectivity AKR1C1 vs AKR1C3) is 0.17.
As for `O[C@H]1CCCc2ccccc21` [S-tetralol, S-(+)-1,2,3,4-tetrahydro-1-naphthol], in test [5], the Kcat came out at 0.553 s⁻¹, the Km came out at 851 µM and the Vmax is listed as 543.90 nmol/min/mg. Besides, in test [2] (GST-AKR1C2, S-tetralol/NADP+), the Kcat came to 0.0962 s⁻¹, the Km stood at 103 µM and the Vmax was 94.58 nmol/min/mg. For the same compound, in test [4] (GST-AKR1C1, S-tetralol/NADP+), the Kcat was 0.2065 s⁻¹, the Km amounted to 23.5 µM and the Vmax is listed as 203.10 nmol/min/mg. Further, in test [4] (recombinant AKR1C1), the catalytic efficiency was 0.53 min^-1/μM^-1.
